Measurements from patent publication US8759333B2, “Di-azetidinyl diamide as monoacylglycerol lipase inhibitors” (Janssen Pharmaceutica, NV, priority 2010, dated 2014).
Changes are numbered by the printed parent chain.

Key:
[1] = tested on: hot plate; conditions: cited from earlier work
[2] = tested on: tail flick; conditions: intravenous delivery (Mechoulam et al.); cited from earlier work
[3] = target: T1, wild type MGL (wt-MGLL 6H-11-313) (Homo sapiens, UniProt Q99685); assay: MGL Enzyme Activity Assay, purified wild type MGL, 4MU-B substrate; format: biochemical; conditions: wild type MGL 5 nM, 4MU-B 10 μM, 37° C.; read-out: MGL wild type inh IC50
T1 construct: purified wild type MGL (wt-MGLL 6H-11-313); 6H (hexahistidine) (N)
T1 sequence (Q99685 1-303): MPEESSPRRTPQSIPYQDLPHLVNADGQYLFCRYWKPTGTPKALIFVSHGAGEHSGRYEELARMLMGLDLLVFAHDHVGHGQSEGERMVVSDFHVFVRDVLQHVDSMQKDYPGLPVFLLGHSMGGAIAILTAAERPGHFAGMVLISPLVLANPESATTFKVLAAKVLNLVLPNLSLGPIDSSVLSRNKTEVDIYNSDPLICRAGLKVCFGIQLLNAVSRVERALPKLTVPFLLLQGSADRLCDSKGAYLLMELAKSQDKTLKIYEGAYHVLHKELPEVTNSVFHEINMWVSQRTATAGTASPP
Experimental: All rate-based assays were performed in black 384-well polypropylene PCR microplates (Abgene) in a total volume of 30 μL. […] Final compound concentrations ranged from 17 to 0.0003 μM.
The IC50 values for the following compounds were determined using Microsoft Office Excel from a fit of the equation to the concentration-response plot of the fractional activity as a function of inhibitor concentration.

[4] = target: T2, MGL (Rattus norvegicus, UniProt Q8R431); assay: 2-AG Accumulation Assay in rat brain homogenate; format: biochemical; conditions: percent of vehicle; for activity at 1 µM: compound @1 µM, read-out: Rat Brain 2AG % VehCntrl (%) @1 µM; for activity at 10 µM: compound @10 µM, read-out: Rat Brain 2AG % VehCntrl (%) @10 µM
T2 construct: one g rat brain was homogenized using a Polytron homogenizer; from tissue; host or cells: rat brain homogenate
T2 sequence (Q8R431 1-303): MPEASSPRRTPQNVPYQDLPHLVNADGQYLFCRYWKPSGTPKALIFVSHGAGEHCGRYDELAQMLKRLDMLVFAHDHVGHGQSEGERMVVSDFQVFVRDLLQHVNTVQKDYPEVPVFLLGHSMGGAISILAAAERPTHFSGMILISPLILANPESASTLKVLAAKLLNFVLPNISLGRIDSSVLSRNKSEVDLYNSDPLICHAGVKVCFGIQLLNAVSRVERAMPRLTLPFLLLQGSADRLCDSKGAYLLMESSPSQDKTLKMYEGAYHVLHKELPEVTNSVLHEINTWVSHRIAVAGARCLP

[5] = tested on: CFA-Induced Paw Radiant Heat Hypersensitivity; assay: CFA-Induced Paw Radiant Heat Hypersensitivity; format: in vivo; conditions: rat, HPβCD; for inhibition in vivo at 30 mg/kg / inhibition in vivo at 10 mg/kg: po, 5 h, group mean values, read-out: Method 1: peak % reversal; for Method 2: peak % reversal: individual animal values
Experimental: Each rat was placed in a test chamber on a warm glass surface and allowed to acclimate for approximately 10 min. A radiant thermal stimulus (beam of light) was focused through the glass onto the plantar surface of each hind paw in turn. The thermal stimulus was automatically shut off by a photoelectric relay when the paw was moved or when the cut-off time was reached (20 sec for radiant heat at ˜5 amps). An initial (baseline) response latency to the thermal stimulus was recorded for each animal prior to the injection of complete Freund's adjuvant (CFA). Twenty-four hours following intraplantar CFA injection, the response latency of the animal to the thermal stimulus was re-evaluated and compared to the animal's baseline response time. […] Immediately following the post-CFA latency assessment, the indicated test compound or vehicle was administered orally. Post-compound treatment withdrawal latencies were assessed at fixed time intervals, typically 30, 60, 120, 180, and 300 min.
The percent reversal (% R) of hypersensitivity was calculated in one of two different ways:
1) using group mean values or 2) using individual animal values. More specifically:
Method 1. For all compounds, the % R of hypersensitivity was calculated using the mean value for groups of animals at each time point according to the following formula: % reversal=[(group treatment response−group CFA response)/(group baseline response−group CFA response)]×100 Results were given for the maximum % reversal observed for each compound at any time point tested.
Method 2. For some compounds, the % R of hypersensitivity was calculated separately for each animal according to the following formula: % reversal=[(individual treatment response−individual CFA response)/(individual baseline response−individual CFA response)]×100.
Results are given as a mean of the maximum % reversal values calculated for each individual animal.

[6] = target: T3, mutant MGL (mut-MGLL 11-313 L179S L186S) (Homo sapiens, UniProt Q99685, L169S/L176S); assay: MGL Enzyme Activity Assay, purified mutant MGL, 4MU-B substrate; format: biochemical; conditions: mutant MGL 5 nM, 4MU-B 10 μM, 37° C.; read-out: MGL mutant inh IC50
T3 construct: purified mutant MGL (mut-MGLL 11-313 L179S L186S)
T3 sequence (Q99685 1-303 L169S/L176S): T1 sequence (Q99685 1-303) with L169S, L176S
Method in brief: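 Purified mutant MGL (5 nM final) with 10 μM 4MU-B in 20 mM PIPES pH 7.0, 150 mM NaCl, 0.001% Tween 20; compounds 17 to 0.0003 μM final. Fluorescence (ex 335/em 440 nm) followed 5 min at 37 °C; IC50 from fit of fractional activity versus inhibitor concentration.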

[7] = target: T4, mutant MGL (Homo sapiens, UniProt Q99685, L169S/L176S); assay: MGL ThermoFluor Assay - Mutant; format: binding; conditions: 0.07 mg/ml mutant MGL, 100 μM ANS, pH 7.0
T4 construct: purified mutant MGL (mut-MGLL 11-313 L179S L186S)
T4 sequence (Q99685 1-303 L169S/L176S): T1 sequence (Q99685 1-303) with L169S, L176S
Method in brief: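 Thermal-shift binding with 0.07 mg/ml L169S/L176S mutant MGL, 100 μM 1,8-ANS, 200 mM NaCl, 0.001% Tween-20, 50 mM PIPES pH 7.0, heated 40–90 °C at 1 °C/min.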

[8] = tested on: murine model of acute inflammation; conditions: murine model of acute inflammation (Comelli et al.); cited from earlier work
[9] = 30 mg/kg p.o., last time point 300 min (180 min for Cpd 17, 77)
[10] = 10 mg/kg p.o., last time point 300 min

| SMILES | analgesia in hot plate assay, given alone ([1]; 2-AG given alone (Ben-Shabat et al.)) | analgesia in hot plate assay ([1]; intravenous delivery (Lichtman et al.)) | analgesia in tail flick assay [2] | IC50 [3] [µM] | activity at 1 µM [4] [%] | activity at 10 µM [4] [%] | inhibition in vivo at 30 mg/kg [5, 9] [%] | Method 2: peak % reversal [5, 9] [%] | IC50 [6] [µM] | Kd [7] [µM] | inhibition in vivo at 10 mg/kg [5, 10] [%] | Method 2: peak % reversal [5, 10] [%] | antinociceptive effect [8] |
| --- | --- | --- | --- | --- | --- | --- | --- | --- | --- | --- | --- | --- | --- |
| CCCCC/C=C\C/C=C\C/C=C\C/C=C\CCCC(=O)OC(CO)CO [2-AG, 2-arachidinoylglycerol] | not analgesic | produces analgesia | produces analgesia |  |  |  |  |  |  |  |  |  |  |
| O=C(NC1CN(C2CN(C(=O)c3ccc4nc(-c5ccccc5)oc4c3)C2)C1)c1nccs1 [Cpd 17, N-{1′-[(2-Phenyl-1,3-benzoxazol-6-yl)carbonyl]-1,3′-biazetidin-3-yl}-1,3-thiazole-2-carboxamide] |  |  |  | 0.037 | 355 | 486 | 27 | 31.5 | 0.048 | 0.333 |  |  |  |
| O=C(c1ccc2c(ccn2-c2ccc(C(F)(F)F)cc2)c1)N1CC(N2CC(N3Cc4ccccc4C3=O)C2)C1 [Cpd 70, 2-[1′-({1-[4-(Trifluoromethyl)phenyl]-1H-indol-5-yl}carbonyl)-1,3′-biazetidin-3-yl]-2,3-dihydro-1H-isoindol-1-one] |  |  |  | < 0.005 | 483 | 736 | 4.7 | 5 | 0.008 | 0.0035 | 28.2 | 22.5 |  |
| O=C(c1ccc(-c2ccc(C(F)(F)F)s2)cc1)N1CC(N2CC(N3Cc4ccccc4C3=O)C2)C1 [Cpd 76, 2-[1′-({4-[5-(Trifluoromethyl)thiophen-2-yl]phenyl}carbonyl)-1,3′-biazetidin-3-yl]-2,3-dihydro-1H-isoindol-1-one] |  |  |  | < 0.005 | 204 | 725 | 17.1 | 17.7 | 0.015 | 0.01 | 15.7 | 26.7 |  |
| O=C(c1ccc2oc(-c3ccccc3)nc2c1)N1CC(N2CC(N3Cc4ccccc4C3=O)C2)C1 [Cpd 77, 2-{1′-[(2-Phenyl-1,3-benzoxazol-5-yl)carbonyl]-1,3′-biazetidin-3-yl}-2,3-dihydro-1H-isoindol-1-one] |  |  |  | 0.031 |  | 478 | 9.9 | 6.9 | 0.016 | 0.1 |  |  |  |
| O=C(c1cc2cc(-c3ccccc3)ccc2s1)N1CC(N2CC(N3Cc4ccccc4C3=O)C2)C1 [Cpd 79, 2-{1′-[(5-Phenyl-1-benzothiophen-2-yl)carbonyl]-1,3′-biazetidin-3-yl}-2,3-dihydro-1H-isoindol-1-one] |  |  |  | 0.01 | 253 | 676 | 33.7 |  | 0.018 | 0.0333 |  |  |  |
| O=C(c1sc2cc(C(F)(F)F)ccc2c1Cl)N1CC(N2CC(N3Cc4ccccc4C3=O)C2)C1 [Cpd 99, 2-(1′-{[3-Chloro-6-(trifluoromethyl)-1-benzothiophen-2-yl]carbonyl}-1,3′-biazetidin-3-yl)-2,3-dihydro-1H-isoindol-1-one] |  |  |  | < 0.005 | 449 |  | 27.6 |  | < 0.005 | 0.0027 |  |  |  |
| O=C(Nc1cccc(-c2ccccc2)c1)OC1CCCCC1 [URB602] |  |  |  |  |  |  |  |  |  |  |  |  | showed an antinociceptive effect |
